Drawing on patent publication US6407130B1, “Carboxamide-substituted benzimidazoles having tryptase-inhibiting activity” (Boehringer Ingelheim Pharma KG, priority 1999, dated 2002), this text covers IC50 for 25 compounds.

Each structure is given as a SMILES string. Where a name gives a salt, the structure may show the parent alone.

This assay deals with T1, rh beta tryptase (Homo sapiens, UniProt Q15661).
T1 construct: purchased Promega
T1 sequence (Q15661 31-275): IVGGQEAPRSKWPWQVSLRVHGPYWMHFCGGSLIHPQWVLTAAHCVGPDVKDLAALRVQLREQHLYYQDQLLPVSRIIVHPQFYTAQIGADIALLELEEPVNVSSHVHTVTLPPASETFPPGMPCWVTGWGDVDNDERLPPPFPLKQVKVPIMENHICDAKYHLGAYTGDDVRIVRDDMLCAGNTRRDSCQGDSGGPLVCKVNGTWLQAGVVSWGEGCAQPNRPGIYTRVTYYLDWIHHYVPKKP
In words: tryptase inhibition test (cleavage of N-p-tosyl-Gly-Pro-Lys-para-nitroaniline, p-nitroaniline measured at 405 nm). Format: biochemical. Particulars: Tris HCl buffer pH 7.4 with calcium and heparin; substrate 0.6 mM; 5 minutes' pre-incubation, 5 minutes incubation at 37° C. The protocol: The compounds according to the invention are characterised by their tryptase-inhibiting activity. This ability to inhibit tryptase was investigated using the test described as follows. The measurement is carried out in Tris HCl buffer (100 mM), which additionally contains calcium (5 mM) and heparin ([…]), at pH 7.4. The standard used is rh beta tryptase which may be obtained commercially from Promega, for example. The substrate used is N-p-tosyl-Gly-Pro-Lys-para-nitroaniline in a concentration of 0.6 mM. The substrate is digested with tryptase to form p-nitroaniline which can be measured at 405 nm. Usually, an incubation period of 5 minutes and an incubation temperature of 37° C. are chosen. The enzyme activity used is 0.91 U/ml. The measurements are carried out in an Autoanalyser (Cobas Bio) made by Hofmann LaRoche. The potential inhibitory substances are used in concentrations of 10 μM in the screening, the inhibition of the tryptase being given in percent. The IC50 is determined at over 70% inhibition (concentration at which 50% of the enzyme activity is inhibited). After 5 minutes' pre-incubation of the potential inhibitory substances, the substrate is added to start the reaction, the formation of p-nitroaniline being taken as a measurement of the enzyme activity after 5 minutes, after testing the linearity.
`Cn1c(CCc2ccc(C(=N)N)cc2)nc2cc(N(Cc3cccc4ccccc34)C(=O)CCCc3ccc([N+](=O)[O-])cc3)ccc21` [Example 42, N-{2-[2-(4-Amidinophenyl)-ethyl]-1-methyl-benzimidazol-5-yl}-N-(α-naphthylmethyl)-[4-(4-nitrophenyl)-butyroamide]-hydrochloride]: the IC50 worked out at 11 nM.

Turning to `Cn1c(CCc2ccc(C(=N)N)cc2)nc2cc(N(Cc3cccc4ccccc34)C(=O)CCCc3ccc(N)cc3)ccc21` [Example 47, N-{2-[2-(4-Amidinophenyl)-ethyl]-1-methyl-benzimidazol-5-yl}-N-( - naphthylmethyl)-[4-(4-aminophenyl)-butyroamide]-dihydrochloride], the IC50 stood at 12 nM.

Regarding `CN(C)CCOCC(=O)N(Cc1cccc2ccccc12)c1ccc2c(c1)nc(CCc1ccc(C(=N)N)cc1)n2C` [Example 59, N-{2-[2-(4-Amidinophenyl)-ethyl]-1-methyl-benzimidazol-5-yl}-N-(α-naphthylmethyl)-[2-(2-dimethylaminoethoxy)-acetamide]-dihydrochloride], the IC50 came to 66 nM.

On to `Cn1c(CCc2ccc(C(=N)N)cc2)nc2cc(N(Cc3ccccc3)C(=O)CCCCN)ccc21` [Example 32, N-{2-[2-(4-Amidinophenyl)-ethyl]-1-methyl-benzimidazol-5-yl}-N-benzyl-[5-amino-pentanoic acid amide]-dihydrochloride], for which the half-inhibitory concentration (IC50) was 57 nM.

Take `Cn1c(CCc2ccc(C(=N)N)cc2)nc2cc(N(Cc3cccc4ccccc34)C(=O)COCc3ccc([N+](=O)[O-])cc3)ccc21` [Example 75, N-{2-[2-(4-Amidinophenyl)-ethyl]-1-methyl-benzimidazol-5-yl}-N-(-- naphthylmethyl)-[2-(4-nitrobenzyloxy)-acetamide]-hydrochloride]: the IC50 came out at 17.2 nM.

Regarding `Cn1c(CCc2ccc(C(=N)N)cc2)nc2cc(N(Cc3cccc4ccccc34)C(=O)CNCc3ccc(F)cc3)ccc21` [Example 61, N-{2-[2-(4-Amidinophenyl)-ethyl]-1-methyl-benzimidazol-5-yl}-N-( - naphthylmethyl)-[2-(4-fluorobenzylamino)-acetamide]-dihydrochloride], the IC50 worked out at 39 nM.

`Cn1c(CCc2ccc(C(=N)N)cc2)nc2cc(N(Cc3cccc4ccccc34)C(=O)CN3CCN(c4ccccn4)CC3)ccc21` [Example 40, N-{2-[2-(4-Amidinophenyl)-ethyl]-1-methyl-benzimidazol-5-yl}-N-( - naphthylmethyl)-[2-(1-pyridin-2-yl-piperazin-4-yl)-acetamide]-dihydro-chloride]: the 50% inhibitory concentration (IC50) was found to be 13 nM.

With `CN(C)CCN(C)CC(=O)N(Cc1cccc2ccccc12)c1ccc2c(c1)nc(CCc1ccc(C(=N)N)cc1)n2C` [Example 41, N-{2-[2-(4-Amidinophenyl)-ethyl]-1-methyl-benzimidazol-5-yl}-N-(α-naphthylmethyl)-[2-(N-(2-dimethylaminoethyl)-N-methylamino)-acetamide]-trihydrochloride], the half-maximal inhibitory concentration (IC50) turned out to be 18 nM.

Take `CC(C)CN(C(=O)CCc1ccc(C(=N)N)cc1)c1ccc2c(c1)nc(CCc1ccc(C(=N)N)cc1)n2C` [Example 5, N-{2-[2-(4-Amidinophenyl)-ethyl]-1-methyl-benzimidazol-5-yl}-N-isobutyl-[3-(4-amidinophenyl)-propionamide]-dihydrochloride]: the IC50 stood at 61 nM.

With `Cn1c(CCc2ccc(C(=N)N)cc2)nc2cc(N(Cc3ccccc3)C(=O)CCCCNC(=N)N)ccc21` [Example 34, N-{2-[2-(4-Amidinophenyl)-ethyl]-1-methyl-benzimidazol-5-yl}-N-benzyl-[5-guanidino-pentanoic acid amide]-dihydrochloride], the IC50 was 43 nM.

Consider `Cn1c(CCc2ccc(C(=N)N)cc2)nc2cc(N(Cc3cccc4ccccc34)C(=O)C=Cc3ccccn3)ccc21` [Example 67, N-{2-[2-(4-Amidinophenyl)-ethyl]-1-methyl-benzimidazol-5-yl}-N-( - naphthylmethyl)-[3-(pyridin-2-yl)-acrylamide]-hydrochloride], for which the IC50 amounted to 39 nM.

Regarding `Cn1c(CCc2ccc(C(=N)N)cc2)nc2cc(N(Cc3cccc4ccccc34)C(=O)CNCc3ccc(O)cc3)ccc21` [Example 52, N-{2-[2-(4-Amidinophenyl)-ethyl]-1-methyl-benzimidazol-5-yl}-N-( - naphthylmethyl)-[2-(4-hydroxybenzylamino)-acetamide]-dihydrochloride], the IC50 amounted to 12 nM.

As to `Cn1c(CCc2ccc(C(=N)N)cc2)nc2cc(N(Cc3cccc4ccccc34)C(=O)CNCc3ccccc3)ccc21` [Example 62, N-{2-[2-(4-Amidinophenyl)-ethyl]-1-methyl-benzimidazol-5-yl}-N-( - naphthylmethyl)-[2-(N-benzylamino)-acetamide]-dihydrochloride], the IC50 stood at 29 nM.

Take `CN(C)CCCCC(=O)N(Cc1cccc2ccccc12)c1ccc2c(c1)nc(CCc1ccc(C(=N)N)cc1)n2C` [Example 25, N-{2-[2-(4-Amidinophenyl)-ethyl]-1-methyl-benzimidazol-5-yl}-N-( - naphthylmethyl)-[5-dimethylamino-pentanoic acid amide]-dihydrochloride]: the IC50 was found to be 33 nM.

On to `Cn1c(CCc2ccc(C(=N)N)cc2)nc2cc(N(Cc3ccc4ccccc4c3)C(=O)CCCc3ccc(N)cc3)ccc21` [Example 55, N-{2-[2-(4-Amidinophenyl)-ethyl]-1-methyl-benzimidazol-5-yl}-N-(β-naphthylmethyl)-[4-(4-aminophenyl)-butyroamide]-dihydrochloride], for which the IC50 is 172 nM.

Consider `Cn1c(CCc2ccc(C(=N)N)cc2)nc2cc(N(Cc3cccc4ccccc34)C(=O)CCC3CCN(Cc4ccccc4)CC3)ccc21` [Example 35, N-{2-[2-(4-Amidinophenyl)-ethyl]-1-methyl-benzimidazol-5-yl}-N-( - naphthylmethyl)-[3-(1-benzyl-piperidin-4-yl)-propionamide]-dihydro-chloride], for which the 50% inhibitory concentration (IC50) is 14 nM.

`Cn1c(CCc2ccc(C(=N)N)cc2)nc2cc(N(Cc3cccc4ccccc34)C(=O)CNCc3ccc(C(=N)N)cc3)ccc21` [Example 22, N-{2-[2-(4-Amidinophenyl)-ethyl]-1-methyl-benzimidazol-5-yl}-N-( - naphthylmethyl)-[4-amidinobenzylamino-acetamide]-trihydrochloride]: the IC50 turned out to be 10 nM.

As for `Cn1c(CCc2ccc(C(=N)N)cc2)nc2cc(N(Cc3cccc4ccccc34)C(=O)CNCc3ccccc3[N+](=O)[O-])ccc21` [Example 49, N-{2-[2-(4-Amidinophenyl)-ethyl]-1-methyl-benzimidazol-5-yl}-N-( - naphthylmethyl)-[2-(2-nitrobenzylamino)-acctamide]-dihydrochloride], the IC50 is 13 nM.

With `Cn1c(CCc2ccc(C(=N)N)cc2)nc2cc(N(Cc3c4ccccc4cc4ccccc34)C(=O)CCC3CCN(Cc4ccccc4)CC3)ccc21` [Example 56, N-{2-[2-(4-Amidinophenyl)-ethyl]-1-methyl-benzimidazol-5-yl}-N-(anthracen-9-ylmethyl)-[3-(1-benzyl-piperidin-4-yl)-propionamide]-dihydro-chloride], the IC50 was 90.6 nM.

For `Cn1c(CCc2ccc(C(=N)N)cc2)nc2cc(N(Cc3cccc4ccccc34)C(=O)CNCc3ccncc3)ccc21` [Example 48, N-{2-[2-(4-Amidinophenyl)-ethyl]-1-methyl-benzimidazol-5-yl}-N-( - naphthylmethyl)-[2-(pyridin-4-ylmethylamino)-acctamide]-dihydrochloride], the IC50 turned out to be 38 nM.

With `CN(CC(=O)N(Cc1cccc2ccccc12)c1ccc2c(c1)nc(CCc1ccc(C(=N)N)cc1)n2C)Cc1ccccc1` [Example 63, N-{2-[2-(4-Amidinophenyl)-ethyl]-1-methyl-benzimidazol-5-yl}-N-( - naphthylmethyl)-[2-(N-benzyl-N-methylamino)-acetamide]-dihydrochloride], the IC50 stood at 28 nM.

Turning to `Cn1c(CCc2ccc(C(=N)N)cc2)nc2cc(N(Cc3cccc4ccccc34)C(=O)CCCCNC(=N)N)ccc21` [Example 27, N-{2-[2-(4-Amidinophenyl)-ethyl]-1-methyl-benzimidazol-5-yl}-N-(- naphthylmethyl)-[5-guanidino-pentanoic acid amide]-dihydrochloride], the IC50 turned out to be 26 nM.

In the case of `CN(C)CCCC(=O)N(Cc1ccccc1)c1ccc2c(c1)nc(CCc1ccc(C(=N)N)cc1)n2C` [Example 37, N-{2-[2-(4-Amidinophenyl)-ethyl]-1-methyl-benzimidazol-5-yl}-N-benzyl-[4-dimethyl-amino-butanoic acid amide]-dihydrochloride], the IC50 was found to be 76 nM.

With `Cn1c(CCc2ccc(C(=N)N)cc2)nc2cc(N(Cc3ccc4ccccc4c3)C(=O)CCC3CCN(Cc4ccccc4)CC3)ccc21` [Example 50], the half-maximal inhibitory concentration (IC50) turned out to be 72 nM.

With `Cn1c(CCc2ccc(C(=N)N)cc2)nc2cc(N(Cc3cccc4ccccc34)C(=O)CNCc3ccc(N4CCCC4)cc3)ccc21` [Example 82, N-{2-[2-(4-Amidinophenyl)-ethyl]-1-methyl-benzimidazol-5-yl}-N-( - naphthylmethyl)-[2-(N-4-pyrrolidin-1-ylbenzylamino)-acetamide]-dihydrochloride], the IC50 amounted to 4.9 nM.

The term IC50 denotes the point on the concentration scale where inhibition reaches its midpoint.
